How the values were obtained:
NCI-H522 = assay: NCI-60 single dose screen, NCI-H522; format: cell-based; settings: Homo sapiens, NSCLC, single concentration 10^−5 M, read-out: IGP (inhibition growth percent) NCI-H522
Protocol: (§1) Aside from above, compounds 9–14 and 17–24 were also submitted to National Cancer Institute and evaluated for the cytotoxic effects toward 60 cell lines at a single dose of 10 μM (Table 2). […] As it was summarized in Table 2, leukemia RPMI-8226 and NSCLC A549/ATCC were most sensitive to compounds 18, 22, and 24. These derivatives in 10 μM concentration inhibited the growth of approximately 50% cells belonging to the above mention cell lines.
(§2) Cytotoxicity evaluation of compounds 9–14 and 17–24 was performed at the National Cancer Institute according to NCI-60 DTP human tumor cell line screen procedure.

HCT-116 (colon cancer) = assay: MTT cell viability assay, HCT-116; format: cell-based; settings: Homo sapiens, 72 h, mean ± SD
Protocol: (§3) All chemicals, if not stated otherwise, were obtained from Sigma-Aldrich (St. Louis, MO, USA). The MCF-7 and HeLa cell lines were purchased from Cell Lines Services (Eppelheim, Germany), the HCT-116 cell line was purchased from ATCC (ATCC-No: CCL-247). Cells were cultured in Dulbecco’s modified Eagle’s medium (DMEM) supplemented with 10% fetal bovine serum, 2 mM glutamine, 100 units/cm^3 penicillin, and 100 μg/cm^3 streptomycin. Cultures were maintained in a humidified atmosphere with 5% CO2 at 37 °C in an incubator (Heraceus, HeraCell).
(§4) Cell viability was determined using the MTT (3-(4,5-dimethylthiazol-2-yl)-2,5-diphenyltetrazolium bromide) assay. Cells were seeded in 96-well plates at a density of 5 × 10^3 cells/well and treated for 72 h with the examined compounds in the concentration range 1–100 μM (1, 10, 25, 50, and 100 μM). Following treatment, MTT (0.5 mg/cm^3) was added to the medium and cells were further incubated for 2 h at 37 °C. Cells were lysed with DMSO and the absorbance of the formazan solution was measured at 550 nm with a plate reader (Victor, 1420 multilabel counter). […] The experiment was performed in triplicate. Values are expressed as the mean ± SD of at least three independent experiments.

A549/ATCC = assay: NCI-60 single dose screen, A549/ATCC; format: cell-based; settings: Homo sapiens, A549, NSCLC; single concentration 10^−5 M; read-out: IGP (inhibition growth percent) A549/ATCC
Protocol: as §1, §2

EKVX = assay: NCI-60 single dose screen, EKVX; format: cell-based; settings: Homo sapiens, NSCLC, single concentration 10^−5 M, read-out: IGP (inhibition growth percent) EKVX
Protocol: as §1, §2

SR = assay: NCI-60 single dose screen, SR; format: cell-based; settings: Homo sapiens, Leukemia, single concentration 10^−5 M, read-out: IGP (inhibition growth percent) SR
Protocol: as §1, §2

MCF-7 (breast cancer) = assay: MTT cell viability assay, MCF-7; format: cell-based, human; settings: Homo sapiens, MCF7, 72 h, mean ± SD
Protocol: All of the newly synthesized compounds 9–24 were evaluated for their effects on cell viability in three human cancer cell lines: HCT-116 (colon cancer), HeLa (cervical cancer), and MCF-7 (breast cancer). Cisplatin was used as reference drug. […] Considering the activity of derivatives 9–12, 15, 17, 18, and 21–24, it can be noticed that phenyl group as R^3 bring an increase of cytotoxicity in comparison with methyl in place of R^3. However, this impact seems to be the most important for compounds with the bulky group in R^1 and generally, it is less for a set of derivatives with methyl group substituted in R^1 (9–12).
as §3, §4

UO-31 = assay: NCI-60 single dose screen, UO-31; format: cell-based; settings: Homo sapiens, Renal cancer, single concentration 10^−5 M, read-out: IGP (inhibition growth percent) UO-31
Protocol: as §1, §2

RPMI-8226 = assay: NCI-60 single dose screen, RPMI-8226; format: cell-based; settings: Homo sapiens, RPMI-8226, Leukemia; single concentration 10^−5 M; read-out: IGP (inhibition growth percent) RPMI-8226
Protocol: as §1, §2

HeLa (cervical cancer) = assay: MTT cell viability assay, HeLa; format: cell-based; settings: Homo sapiens
Protocol: as §3, §4

HOP-92 = assay: NCI-60 single dose screen, HOP-92; format: cell-based; settings: Homo sapiens, NSCLC, single concentration 10^−5 M, read-out: IGP (inhibition growth percent) HOP-92
Protocol: as §1, §2

PC-3 = assay: NCI-60 single dose screen, PC-3; format: cell-based; settings: Homo sapiens, Prostate cancer, single concentration 10^−5 M, read-out: IGP (inhibition growth percent) PC-3
Protocol: as §1, §2

UACC-62 = assay: NCI-60 single dose screen, UACC-62; format: cell-based; settings: Homo sapiens, Melanoma, single concentration 10^−5 M, read-out: IGP (inhibition growth percent) UACC-62
Protocol: as §1, §2

HCT-116 = assay: NCI-60 single dose screen, HCT-116; format: cell-based; settings: Homo sapiens, Colon cancer, single concentration 10^−5 M, read-out: IGP (inhibition growth percent) HCT-116
Protocol: as §1, §2

MOLT-4 = assay: NCI-60 single dose screen, MOLT-4; format: cell-based; settings: Homo sapiens, Leukemia, single concentration 10^−5 M, read-out: IGP (inhibition growth percent) MOLT-4
Protocol: as §1, §2

[1] = Metabolic stability in human liver microsomes with NADPH; format: in vitro ADME; settings: pooled human liver microsomes, pH 7.4, human liver microsomes 0.5 mg/cm^3, NADPH 1 mM, 10 μM compound, 37 °C, read-out: in vitro metabolic half-life t1/2
Protocol: Selected derivatives were submitted to metabolic stability study to assess their ability to remain unchanged in the presence of human metabolic enzymes. Human liver microsomes were used as they are a rich source of all common CYP isoenzymes. In vitro incubations were performed in the presence of NADPH as a cofactor and the disappearance of a derivative was followed using LC–MS technique. The in vitro metabolic half-life values are gathered in Fig. 3.
Stock solutions of studied compounds were prepared at concentration of 10 mM in DMSO. […] Incubation mixture contained 10 μM of a studied derivative, 1 mM of NADPH (Sigma-Aldrich) and 0.5 mg/cm^3 of pooled human liver microsomes (HLM, Sigma-Aldrich) in potassium phosphate buffer (0.1 M, pH 7.4). Incubation was carried out in thermostat at 37 °C and started by addition of studied compound. 50 mm^3 samples were taken at starting point and after 5, 15, 30, 45, and 60 min. Enzymatic reaction was terminated by the addition of the equal volume of ice-cold acetonitrile. Incubations were performed in triplicates, the average t1/2 and standard deviation was calculated. Control incubations were performed without NADPH to assess chemical instability. After collection, samples were immediately centrifuged (10 min, 10,000 rpm) and resulted supernatant was directly analyzed or kept in − 80 °C until LC–MS analysis. Natural logarithm of a compound over IS peak area ratio was plotted versus incubation time. Metabolic half-time (t1/2) was calculated from the slope of the linear regression.
LC–MS analysis was performed on an Agilent 1260 system coupled to SingleQuad 6120 mass spectrometer (Agilent Technologies, Santa Clara, CA, USA). Poroshell EC-C18 (2.1 mm × 150 mm, 2.7 μm, Agilent Technologies, Santa Clara, CA, USA) was used in reversed-phase mode with gradient elution starting with 5% of phase A (10 mM ammonium formate in water) and 95% of phase B (10 mM ammonium formate in acetonitrile–water mixture, 95:5 v/v). […] Total analysis time was 15 min at 40 °C, flow rate was 1 cm^3/min and the injection volume was 5 mm^3. The mass spectrometer was equipped with electrospray ion source and operated in positive ionization. Mass analyzer was set individually to each compound to detect [M+H]^+ protonated molecule. MSD parameters of the ESI source were as follows: nebulizer pressure 35 psig (N2), drying gas […] (N2), drying gas temperature 300 °C, capillary voltage 3 kV, fragmentor voltage 150 V.

MCF-7 = assay: NCI-60 single dose screen, MCF-7; format: cell-based; settings: Homo sapiens, MCF7; Breast cancer; single concentration 10^−5 M; read-out: IGP (inhibition growth percent) MCF-7
Protocol: as §1, §2

[2] = Table 4, repeats Table 1 values without SD and unit

## Cc1nc(NS(=O)(=O)c2cc(C(=O)Nc3ccccc3)c(Cl)cc2SCc2ccccc2)nc2ccccc12 [Compound 17, 2-Benzylthio-4-chloro-5-phenylcarbamoyl-N-(4-methylquinazolin-2-yl)benzenesulfonamide]
NCI-H522
  inhibition at 10 µM: 12%
HCT-116 (colon cancer)
  IC50: 84 ± 3 µM
A549/ATCC
  inhibition at 10 µM: 11%
EKVX
  inhibition at 10 µM: 18%
SR
  inhibition at 10 µM: 12%
MCF-7 (breast cancer)
  IC50: 175 ± 10 µM
UO-31
  inhibition at 10 µM: 24%
RPMI-8226
  inhibition at 10 µM: 22%
HeLa (cervical cancer); MTT, 72 h, mean ± SD
  IC50: 72 ± 1 µM
HeLa (cervical cancer); [2]
  IC50: 72 µM
HOP-92
  inhibition at 10 µM: 20%
PC-3
  inhibition at 10 µM: 3%
UACC-62
  inhibition at 10 µM: 14%
HCT-116
  inhibition at 10 µM: 5%
MOLT-4
  inhibition at 10 µM: 9%
[1]
  half-life at 10 μM: 16 min

## Cc1cc(S(=O)(=O)Nc2nc(C)c3ccccc3n2)c(SCc2ccccc2)cc1Cl [Compound 9, 2-Benzylthio-4-chloro-5-methyl-N-(4-methylquinazolin-2-yl)benzenesulfonamide]
NCI-H522
  inhibition at 10 µM: 9%
HCT-116 (colon cancer)
  IC50: 61 ± 1 µM
EKVX
  inhibition at 10 µM: 3%
SR
  inhibition at 10 µM: 6%
MCF-7 (breast cancer)
  IC50: 100 ± 2 µM
UO-31
  inhibition at 10 µM: 27%
RPMI-8226
  inhibition at 10 µM: 15%
HeLa (cervical cancer); MTT, 72 h, mean ± SD
  IC50: 75 ± 5 µM
HeLa (cervical cancer); [2]
  IC50: 75 µM
HOP-92
  inhibition at 10 µM: 3%
PC-3
  inhibition at 10 µM: 2%
UACC-62
  inhibition at 10 µM: 29%
MCF-7
  inhibition at 10 µM: 2%
MOLT-4
  inhibition at 10 µM: 12%
[1]
  half-life at 10 μM: 51.9 min

## Cc1ccc(NC(=O)c2cc(S(=O)(=O)Nc3nc(C)c4ccccc4n3)c(SCc3ccccc3)cc2Cl)cc1 [Compound 23, 2-Benzylthio-4-chloro-5-(4-methylphenylcarbamoyl)-N-(4-methylquinazolin-2-yl)benzenesulfonamide]
HCT-116 (colon cancer)
  IC50: 70 ± 1 µM
A549/ATCC
  inhibition at 10 µM: 6%
EKVX
  inhibition at 10 µM: 15%
SR
  inhibition at 10 µM: 8%
MCF-7 (breast cancer)
  IC50: 97 ± 2 µM
UO-31
  inhibition at 10 µM: 21%
RPMI-8226
  inhibition at 10 µM: 17%
HeLa (cervical cancer); MTT, 72 h, mean ± SD
  IC50: 75 ± 2 µM
HeLa (cervical cancer); [2]
  IC50: 75 µM
PC-3
  inhibition at 10 µM: 18%
MCF-7
  inhibition at 10 µM: 8%
MOLT-4
  inhibition at 10 µM: 5%
[1]
  half-life at 10 μM: 35 min

## Cc1cc(S(=O)(=O)Nc2nc(-c3ccccc3)c3ccccc3n2)c(SCC(N)=O)cc1Cl [Compound 14, 2-Carbamoylmethylthio-4-chloro-5-methyl-N-(4-phenylquinazolin-2-yl)benzenesulfonamide]
NCI-H522
  inhibition at 10 µM: 4%
HCT-116 (colon cancer)
  IC50: 85 ± 3 µM
SR
  inhibition at 10 µM: 17%
MCF-7 (breast cancer)
  IC50: 155 ± 9 µM
UO-31
  inhibition at 10 µM: 2%
HeLa (cervical cancer); MTT, 72 h, mean ± SD
  IC50: 120 ± 1 µM
MOLT-4
  inhibition at 10 µM: 9%
[1]
  half-life at 10 μM: 90.8 min

— article PMC6133092, “Synthesis of 2-alkylthio-N-(quinazolin-2-yl)benzenesulfonamide derivatives: anticancer activity, QSAR studies, and metabolic stability” (Monatshefte Fur Chemie, 2018)
